target: human nCDase (extracellular region, residues 99–780) (Homo sapiens, UniProt Q9NR71); assay: RBM biochemical nCDase enzymatic activity assay; details: qualitative; data not shown for valproate, anacardamate, MG149
Sequence (Q9NR71 99-780): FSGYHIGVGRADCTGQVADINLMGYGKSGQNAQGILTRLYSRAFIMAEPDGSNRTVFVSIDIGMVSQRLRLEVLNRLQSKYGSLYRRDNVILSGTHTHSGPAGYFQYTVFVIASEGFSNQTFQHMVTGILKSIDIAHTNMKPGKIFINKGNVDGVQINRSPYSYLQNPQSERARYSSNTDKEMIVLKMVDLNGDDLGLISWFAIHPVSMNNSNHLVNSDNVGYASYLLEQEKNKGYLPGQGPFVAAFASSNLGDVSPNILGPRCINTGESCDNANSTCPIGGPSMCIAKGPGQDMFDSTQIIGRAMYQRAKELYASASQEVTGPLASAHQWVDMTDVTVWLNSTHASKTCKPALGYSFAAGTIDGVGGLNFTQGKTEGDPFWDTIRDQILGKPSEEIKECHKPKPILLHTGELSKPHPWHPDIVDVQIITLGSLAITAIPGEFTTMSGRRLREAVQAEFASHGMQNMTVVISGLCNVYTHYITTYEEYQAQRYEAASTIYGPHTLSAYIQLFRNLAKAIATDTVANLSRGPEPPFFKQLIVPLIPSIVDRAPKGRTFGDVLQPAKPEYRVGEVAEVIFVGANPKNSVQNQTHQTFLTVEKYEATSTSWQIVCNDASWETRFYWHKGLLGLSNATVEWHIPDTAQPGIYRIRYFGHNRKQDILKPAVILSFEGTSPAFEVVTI

| nCDase inhibitory activity (in words) | Compound |
| --- | --- |
| exhibited nCDase inhibitory activity | CCCCCCCc1ccc(CCc2cccc(O)c2C(=O)O)cc1 [MG149] |
| nCDase inhibitory activity | CC(/C=C/C(=O)NO)=C\[C@@H](C)C(=O)c1ccc(N(C)C)cc1 [Trichostatin A] |
| exhibited nCDase inhibitory activity | CCCC(CCC)C(=O)O [valproate] |
| exhibited nCDase inhibitory activity | anacardamate |

Source: publication PMC10681040 (Bioorganic chemistry, 2023)
